Several values for one entry are separate records, joined by “and”; a condition that tells them apart may be missing. Equal entries are not always repeated. Where two headings read alike, the source gives them in different places. Where a SMILES comes first, the peptide text is derived from it. [ ]: non-standard residue; d: D form. The star is where a group is joined. Propanoyl(3-cHex) = O=C(CCC1CCCCC1)*; Dap = NC[C@H](N)C(=O)O
Legend:
[1] = target: T1, NMU2 N306W (Homo sapiens, UniProt Q9GZQ4, N306W); assay: TRUPATH assay, NMU2 mutant N306W; assay type: cell-based
T1 construct: HA signal peptide (N); expressed in transfected cells; host or cells: HEK 293F
Protocol: (§1) The plasmids of Gαi1, Gβ3, and Gγ9 used for the TRUPATH assay were purchased from Addgene (TRUPATH Kit, #1000000163). NMU2 constructs of WT and mutants were constructed into a PTT5 vector (Invitrogen) with an N-terminal HA signal peptide followed by a Flag tag. HEK 293F cells were transiently transfected with WT or mutants of NMU2, Gαi1, Gβ3, and Gγ9 at an […] ratio of 4:1:1:1 with a total of 3500 ng plasmid DNA using a transfection reagent (PEI MAX 2000, Polysciences) and cultivated at 37 °C with 5 % CO2. Cells were collected after 48-h transfection. The expression level of the receptor was measured by incubating 10 μl cells with 15 μl TBS buffer supplemented with 4% bovine serum albumin, 20% (v/v) viability staining solution7-AAD (Invitrogen, Cat#00-6993-50), and ANTI-FLAG M2-FITC antibody (Sigma, F4049; 1:100 diluted by TBS) at 4 °C for 20 min. After incubation, 175 μl TBS buffer was added, and the fluorescence signal on the cell surface was detected by an FCM (flow cytometry) reader (Millipore). The cells were diluted with 1× HBSS (Hank’s balanced salt solution) balanced buffer supplemented with 25 mM HEPES, pH 7.4, and seeded onto the 96-well opaque cell culture plates (Beyotime) at a density of 18,000 cells per well by 60 μl. Freshly prepared 50 μM coelenterazine 400a (Nanolight Technologies) was added into the well by 10 μl. After a 5 min equilibration time in the darkness, plates were then read in a Synerg^TM H1 microplate reader (BioTek) with excitation at 395 nm and emission at 410 and 515 nm by serially three times. Then, 30 μl of 3.3× agonists were added into the wells with a gradient final concentration from 10^−4–10^−13 M. Plates were read immediately again by serially five times. Data were processed and analyzed following the method in the literature by using GraphPad Prism 8.0.

[2] = target: T2, NMU2 N306Q (Homo sapiens, UniProt Q9GZQ4, N306Q); assay: TRUPATH assay, NMU2 mutant N306Q; assay type: cell-based
T2 construct: HA signal peptide (N); expressed in transfected cells; host or cells: HEK 293F
Protocol: as §1

[3] = target: T3, NMU2 H43E (Homo sapiens, UniProt Q9GZQ4, H43E); assay: TRUPATH assay, NMU2 mutant H43E; assay type: cell-based; conditions: H43E
T3 construct: HA signal peptide (N); expressed in transfected cells; host or cells: HEK 293F
Protocol: as §1

[4] = target: T4, NMU2 A302H (Homo sapiens, UniProt Q9GZQ4, A302H); assay: TRUPATH assay, NMU2 mutant A302H; assay type: cell-based
T4 construct: HA signal peptide (N); expressed in transfected cells; host or cells: HEK 293F
Protocol: as §1

[5] = target: T5, NMU2 (Homo sapiens, UniProt Q9GZQ4); assay: TRUPATH Gαi1βγ biosensor assay, WT NMU2; assay type: cell-based; conditions: WT; for CPN 116–induced G protein activation of NMU2: single replicates, in % (unit assumed)
T5 construct: HA signal peptide (N); expressed in transfected cells; host or cells: HEK 293F
Protocol: as §1

[6] = target: T5, NMU2; set-up: method as in PMID 24999562, PMID 25815150, PMID 28548497; conditions: potency for NMU2; cited from earlier work
[7] = tested on: NMU1; set-up: method as in PMID 24999562, PMID 25815150, PMID 28548497; conditions: cited from earlier work
[8] = target: T6, NMU2 H43W (Homo sapiens, UniProt Q9GZQ4, H43W); assay: TRUPATH assay, NMU2 mutant H43W; assay type: cell-based
T6 construct: HA signal peptide (N); expressed in transfected cells; host or cells: HEK 293F
Protocol: as §1

[9] = earlier manuscript version, peer review file
[10] = read-out: pEC50 mean±SEM (converted)

T4 sequence (Q9GZQ4 whole entry A302H): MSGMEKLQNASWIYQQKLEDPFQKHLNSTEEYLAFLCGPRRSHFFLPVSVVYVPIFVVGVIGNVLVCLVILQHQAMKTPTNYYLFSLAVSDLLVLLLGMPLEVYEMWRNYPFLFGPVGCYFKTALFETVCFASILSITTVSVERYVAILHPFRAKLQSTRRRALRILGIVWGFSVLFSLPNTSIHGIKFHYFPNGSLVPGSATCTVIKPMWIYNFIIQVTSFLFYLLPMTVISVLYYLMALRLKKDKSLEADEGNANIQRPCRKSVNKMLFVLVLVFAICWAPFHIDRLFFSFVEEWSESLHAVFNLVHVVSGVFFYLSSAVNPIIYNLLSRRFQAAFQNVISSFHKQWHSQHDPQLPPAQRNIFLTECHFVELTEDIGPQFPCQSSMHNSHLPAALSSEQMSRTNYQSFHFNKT
T1 sequence (Q9GZQ4 whole entry N306W): as the sequence (Q9GZQ4 whole entry A302H) above, with H302A, N306W counted along it
T5 sequence (Q9GZQ4 whole entry): as the sequence (Q9GZQ4 whole entry A302H) above, with H302A counted along it
T6 sequence (Q9GZQ4 whole entry H43W): as the sequence (Q9GZQ4 whole entry A302H) above, with H43W, H302A counted along it
T3 sequence (Q9GZQ4 whole entry H43E): as the sequence (Q9GZQ4 whole entry A302H) above, with H43E, H302A counted along it
T2 sequence (Q9GZQ4 whole entry N306Q): as the sequence (Q9GZQ4 whole entry A302H) above, with H302A, N306Q counted along it

CC(C)C[C@H](NC(=O)CCC1CCCCC1)C(=O)N[C@@H](CC(C)C)C(=O)N[C@@H](CN)C(=O)N1CCC[C@H]1C(=O)N[C@@H](CCCNC(=N)N)C(=O)N[C@@H](CC(N)=O)C(N)=O [CPN 116] ({Propanoyl(3-cHex)}-LL[Dap]PRN-NH2; N-terminus assumed)
CPN 116–induced G protein activation of NMU2 ([1]; Log [CPN 116] M -4, single replicates): -39.3918 and -40.1037 and -18.108 | CPN 116–induced G protein activation of NMU2 ([1]; Log [CPN 116] M -5, single replicates): -35.463 and -12.1167 and -20.5536 | CPN 116–induced G protein activation of NMU2 ([1]; Log [CPN 116] M -6, single replicates): -13.9347 and -29.6651 | CPN 116–induced G protein activation of NMU2 ([1]; Log [CPN 116] M -7, single replicates): -42.0373 and -15.8433 and -22.9653 | CPN 116–induced G protein activation of NMU2 ([1]; Log [CPN 116] M -8, single replicates): -43.5336 and -18.6278 | CPN 116–induced G protein activation of NMU2 ([1]; Log [CPN 116] M -9, single replicates): -58.7333 and -19.6009 and -22.809 | CPN 116–induced G protein activation of NMU2 ([1]; Log [CPN 116] M -10, single replicates): -49.0206 and -44.7808 and -17.6453 | CPN 116–induced G protein activation of NMU2 ([1]; Log [CPN 116] M -11, single replicates): -6.043 and -10.0645 and -20.5889 | EC50 ratio EC50(mutant)/EC50(WT) [2]: 34 and ~30 | Span (window between Emax and minimal agonist response) [2]: 103±8 % of WT | G protein activation (TRUPATH), dose-response point ([2]; Log [agonist] M -4): 92.4083 and 98.1528 and 132.361 and 88.4481 | G protein activation (TRUPATH), dose-response point ([2]; Log [agonist] M -5): 86.2104 and 99.9961 and 102.907 and 71.1922 | reduction of potency [2, 9]: about 40 fold | EC50 ([2]; read-out: EC50): 3.03 µM | EC50 [2, 10]: 3.02 µM | EC50 ratio EC50(mutant)/EC50(WT) [3]: 34 and ~30 | Span (window between Emax and minimal agonist response) [3]: 68±10 % of WT | G protein activation (TRUPATH), dose-response point ([3]; Log [agonist] M -4): 54.8659 and 69.4702 and 83.0554 | reduction of potency [3, 9]: about 40 fold | EC50 ([3]; read-out: EC50): 3.01 µM | EC50 [3, 10]: 3.02 µM | EC50 ratio EC50(mutant)/EC50(WT) [4]: 10 | Span (window between Emax and minimal agonist response) [4]: 57±12 % of WT | EC50 ([4]; read-out: EC50): 890 nM | EC50 [4, 10]: 891 nM | EC50 ratio EC50(mutant)/EC50(WT) [5]: 1 | Span (window between Emax and minimal agonist response) [5]: 100±5 % of WT | CPN 116–induced G protein activation of NMU2 ([5]; Log [CPN 116] M -4): 124.271 and 109.389 and 104.836 and 98.7874 and 114.415 and 92.1354 and 98.8516 and 96.9846 and 129.092 | CPN 116–induced G protein activation of NMU2 ([5]; Log [CPN 116] M -5): 81.0668 and 90.6105 and 83.9029 and 70.7281 and 97.1643 and 105.033 and 97.1976 and 102.389 and 91.9125 | CPN 116–induced G protein activation of NMU2 ([5]; Log [CPN 116] M -6): 123.537 and 69.0158 and 98.755 and 109.275 and 101.527 and 90.1601 and 88.5457 and 99.457 and 76.0968 and 66.3324 | CPN 116–induced G protein activation of NMU2 ([5]; Log [CPN 116] M -7): 58.8924 and 38.0271 and 51.0097 and 20.9117 and 20.6245 and 99.7769 and 42.6311 and 75.7485 and 28.5134 and 61.3823 | CPN 116–induced G protein activation of NMU2 ([5]; Log [CPN 116] M -8): 61.8786 and 27.1582 and 20.07 and 29.5038 and 13.1206 and 29.1828 and -9.383 and 21.3054 and 11.8363 and 17.7072 | CPN 116–induced G protein activation of NMU2 ([5]; Log [CPN 116] M -9): 19.9062 and -6.919 and 9.364 and -2.803 and 20.3603 and -10.3226 and 21.8665 and -7.72 and -11.2532 and 17.6747 | CPN 116–induced G protein activation of NMU2 ([5]; Log [CPN 116] M -10): 41.8708 and 6.201 and -13.4099 and 3.958 and 1.871 and 13.514 and 0.4422 and 6.532 and 9.793 and -10.7717 | CPN 116–induced G protein activation of NMU2 ([5]; Log [CPN 116] M -11): -45.0449 and -20.5889 and -0.1978 and -15.7237 and -24.3777 and 3.048 and -8.327 and 4.148 and -6.043 and -10.0645 | EC50 ([5]; agonist-induced G protein activation, HEK 293F, read-out: EC50): 88 nM | EC50 [5, 10]: 89.1 nM | EC50 [6]: 6.6 nM | activation of NMU1 [7]: without obvious activation of NMU1 | EC50 ratio EC50(mutant)/EC50(WT) [8]: 4 | Span (window between Emax and minimal agonist response) [8]: 113±8 % of WT | G protein activation (TRUPATH), dose-response point ([8]; Log [agonist] M -4): 70.3208 and 118.253 and 100.643 and 93.456 | G protein activation (TRUPATH), dose-response point ([8]; Log [agonist] M -5): 117.081 and 116.835 and 123.722 and 102.53 | EC50 ([8]; read-out: EC50): 328 nM | EC50 [8, 10]: 331 nM
